Tested on: Human ciliated epithelium cells
Method: A cytotoxic damage of these cells which would cause a restriction of the mucociliar clearance can be determined by a detectable decrease of the ciliary vibration.
Human ciliated epithelium cells were analysed by an in-vitro method which enables the determination of the ciliary activity or ciliary vibration. The corresponding cells were exposed and incubated with 100 je.1 test substance at a temperature of 37 C. After an incubation period of 5 minutes the ciliary vibration was measured.
By using this in-vitro method a nutriant solution (Dulbeco) as standard, a 0.2% chlorohexidine solution (typical antiseptic agent), conventional polyvidone iodine solutions (Betaisodona) of different concentrations (5.0%, 2.5% and 1.25% PVP-iodine) and a liposomal solution containing 4.5% of PVP-iodine were tested.

In the case of `[H]/N=C(\N/C(=N/[H])NCCCCCCNC(=N)NC(=N)Nc1ccc(Cl)cc1)Nc1ccc(Cl)cc1` [chlorohexidine], the ciliary vibration is reported as “decrease of the measured ciliary vibration in comparison to the standard”.

From EP1449521A1, “Use of PVP-iodine liposomes for treatment of atopic dermatitis” (EURO-CELTIQUE S.A., priority 2003, dated 2004)
